TGI and GI50 data for 28 molecules are collected here from PubChem BioAssay (NCI).

Several values for one entry are separate records, joined by “and”; a condition that tells them apart may be missing. Equal values may be shown once.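 The compound was tested at five concentrations on cells cultured in 96-well plates, with a 48-hour exposure period. GI50: concentration for 50% inhibition of growth. The concentration for full growth arrest is given as TGI.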

In the first assay the test system is HCT-15 colon. The experiment in a line: NCI tumour cell line growth inhibition, 48 h.
In the case of `Cc1ccn2c(=O)cc(-c3ccccc3)nc2c1`, the TGI is greater than 100 µM.
The molecule `O=c1[nH]nc(Cc2ccc([N+](=O)[O-])cc2)n1CCO` had a TGI greater than 100 µM.
`c1cc2nnnn2nc1N1CCCC1`: the TGI was greater than 100 µM.
With `N#Cc1c(-c2ccccc2)nc(-c2ccccc2)sc1=S`, the TGI was greater than 100 µM.
In turn, `CCn1nc2c3c(ncn3C(C)(C)O2)c1=O` had a TGI greater than 100 µM.
In turn, `CCC(C#N)NC(=O)NC(C#N)CC` (configuration not stated) registered a TGI greater than 100 µM.
On the same count and under the same terms, the figure for `CCc1ccc2oc(-c3cc(O)c(-c4nc5cc(CC)ccc5o4)cc3O)nc2c1` is greater than 100 µM; for `CCOC(=O)/C=C(/C(=O)OCC)n1ccc(N)nc1=O` it is greater than 100 µM; for `CC(=O)O[C@H]1C#C/C=C\C#CC[C@@H]2C(=O)N[C@@H]12` it is greater than 82 µM.
In turn, `CCCSc1ccc2[nH]c(/N=C/c3ccco3)cc2c1` returned a TGI greater than 100 µM.
Same read-out and setting: the value for `Cc1ccc2c(c1)[nH]c1cc(C(F)(F)F)ccc1[p+]2=O` (configuration not stated) was greater than 100 µM; that for `CN(O)C(=O)c1cccc(Cl)c1` was greater than 100 µM.
As for `CCC1(C)N=C(c2cnccn2)NN1c1ccc(Cl)cc1` (configuration not stated), the TGI was greater than 100 µM.
For `C1CNCCNCCN1`, the TGI is greater than 100 µM.
For `O=c1nc2c(c(-c3ccccc3Cl)[nH]1)COC/C2=C\c1ccccc1Cl`, the TGI is greater than 100 µM.

In a further assay the test system is HL-60(TB) leukemia. The experiment in a line: NCI tumour cell line growth inhibition, 48 h.
`Cc1ccc(/C(O)=C/C(=O)C(=O)/C=C(\O)c2ccc(C)cc2C)c(C)c1` yielded a TGI of 0.58 µM.
With `O=C(NCCCCCCNCc1cccc2ccccc12)Nc1cccc2ccccc12`, the TGI is greater than 100 µM.
With `Cc1ccc([C@H]2CC(=O)C[C@H](c3ccc(C)cc3)C23C(=O)c2ccccc2C3=O)cc1`, the TGI turned out to be 33.2 µM.
Still for that read-out and setting: the figure for `O=c1c2ncn(COCCCl)c2n(-c2ccccc2)c(=S)n1-c1ccccc1` is greater than 100 µM.
Take `COc1ccc(/C=N/N=C(\N)NO)c(O)c1`: the TGI was greater than 10 µM.
In turn, `CC1(CF)SCc2nc3ccccc3n21` (configuration not stated) showed a TGI greater than 100 µM.
`NCCSc1nc2ccccc2c(=O)n1-c1ccccc1` returned a TGI of 90.7 µM.
Take `Nc1cccc(Nc2nc3ccccc3nc2NS(=O)(=O)c2ccccc2)c1`: the TGI was 46.6 µM.
Regarding `COC(=O)C1=CC(=O)OC1(OO)c1ccccc1` (configuration not stated), the TGI was determined as 20.4 µM.
For the molecule `CN(C)Cc1cc(C(=O)/C=C/c2ccccc2Cl)cc(CN(C)C)c1O`, the TGI was 27.2 µM.
On the same count and under the same terms, the figure for `O=C1NC(N/N=C/C(O)C(O)C(O)CO)=N/C1=C\c1ccco1` (configuration not stated) is greater than 100 µM; for `COc1cc(CNc2ccc(SC)cc2)cc(OC)c1OC` it is 42.6 µM and 40.2 µM.
Still for that read-out and setting: the figure for `Nc1ccc(N=Nc2ccccc2)cc1` is greater than 100 µM.
On to `Cc1ccn2c(=O)cc(-c3ccccc3)nc2c1`, for which the TGI is greater than 100 µM.
In turn, `O=c1[nH]nc(Cc2ccc([N+](=O)[O-])cc2)n1CCO` gave a TGI greater than 100 µM.
`c1cc2nnnn2nc1N1CCCC1` showed a TGI greater than 100 µM.
In turn, `N#Cc1c(-c2ccccc2)nc(-c2ccccc2)sc1=S` registered a TGI greater than 100 µM.
Still for that read-out and setting: the value for `CCn1nc2c3c(ncn3C(C)(C)O2)c1=O` was greater than 100 µM.
On to `CCC(C#N)NC(=O)NC(C#N)CC` (configuration not stated), for which the TGI is greater than 100 µM.
Turning to `CCc1ccc2oc(-c3cc(O)c(-c4nc5cc(CC)ccc5o4)cc3O)nc2c1`, the TGI is greater than 100 µM.
The same measure, in the same setting: the value for `CCOC(=O)/C=C(/C(=O)OCC)n1ccc(N)nc1=O` was greater than 100 µM; that for `CC(=O)O[C@H]1C#C/C=C\C#CC[C@@H]2C(=O)N[C@@H]12` was 33.5 µM.
Same read-out and setting: the value for `CCCSc1ccc2[nH]c(/N=C/c3ccco3)cc2c1` was 84.4 µM.
Consider `Cc1ccc2c(c1)[nH]c1cc(C(F)(F)F)ccc1[p+]2=O` (configuration not stated), for which the TGI was 56.2 µM.
Turning to `CN(O)C(=O)c1cccc(Cl)c1`, the TGI is greater than 100 µM.
As to `CCC1(C)N=C(c2cnccn2)NN1c1ccc(Cl)cc1` (configuration not stated), the TGI was greater than 100 µM.
On the same count and under the same terms, the value for `C1CNCCNCCN1` was greater than 100 µM; that for `O=c1nc2c(c(-c3ccccc3Cl)[nH]1)COC/C2=C\c1ccccc1Cl` was greater than 100 µM.

A further assay deals with M14 melanoma. In words: NCI tumour cell line growth inhibition, 48 h.
On to `Cc1ccc(/C(O)=C/C(=O)C(=O)/C=C(\O)c2ccc(C)cc2C)c(C)c1`, for which the TGI is 3.27 µM.
For `O=C(NCCCCCCNCc1cccc2ccccc12)Nc1cccc2ccccc12`, the TGI is greater than 100 µM.
As for `Cc1ccc([C@H]2CC(=O)C[C@H](c3ccc(C)cc3)C23C(=O)c2ccccc2C3=O)cc1`, the TGI is greater than 100 µM.
In the case of `O=c1c2ncn(COCCCl)c2n(-c2ccccc2)c(=S)n1-c1ccccc1`, the TGI is greater than 100 µM.
Molecule `COc1ccc(/C=N/N=C(\N)NO)c(O)c1` gave a TGI greater than 10 µM.
In turn, `CC1(CF)SCc2nc3ccccc3n21` (configuration not stated) displayed a TGI greater than 100 µM.
With `NCCSc1nc2ccccc2c(=O)n1-c1ccccc1`, the TGI was greater than 100 µM.
`Nc1cccc(Nc2nc3ccccc3nc2NS(=O)(=O)c2ccccc2)c1` gave a TGI of 71.8 µM.
Molecule `COC(=O)C1=CC(=O)OC1(OO)c1ccccc1` (configuration not stated) came in with a TGI greater than 100 µM.
Turning to `CN(C)Cc1cc(C(=O)/C=C/c2ccccc2Cl)cc(CN(C)C)c1O`, the TGI turned out to be 23.3 µM.
With `O=C1NC(N/N=C/C(O)C(O)C(O)CO)=N/C1=C\c1ccco1` (configuration not stated), the TGI was greater than 100 µM.
For `COc1cc(CNc2ccc(SC)cc2)cc(OC)c1OC`, the GI50 is 5.28 µM; the TGI is > 47 µM and 37.9 µM.
Regarding `Nc1ccc(N=Nc2ccccc2)cc1`, the TGI was greater than 100 µM.
Regarding `Cc1ccn2c(=O)cc(-c3ccccc3)nc2c1`, the TGI is greater than 100 µM.
Turning to `O=c1[nH]nc(Cc2ccc([N+](=O)[O-])cc2)n1CCO`, the TGI was greater than 100 µM.
With `c1cc2nnnn2nc1N1CCCC1`, the TGI is greater than 100 µM.
Molecule `N#Cc1c(-c2ccccc2)nc(-c2ccccc2)sc1=S` returned a TGI greater than 100 µM.
Consider `CCn1nc2c3c(ncn3C(C)(C)O2)c1=O`, for which the TGI is greater than 100 µM.
In turn, `CCC(C#N)NC(=O)NC(C#N)CC` (configuration not stated) returned a TGI greater than 100 µM.
`CCc1ccc2oc(-c3cc(O)c(-c4nc5cc(CC)ccc5o4)cc3O)nc2c1`: the TGI was greater than 100 µM.
The molecule `CCOC(=O)/C=C(/C(=O)OCC)n1ccc(N)nc1=O` showed a TGI greater than 100 µM.
Still for that read-out and setting: the figure for `CC(=O)O[C@H]1C#C/C=C\C#CC[C@@H]2C(=O)N[C@@H]12` is greater than 100 µM; for `CCCSc1ccc2[nH]c(/N=C/c3ccco3)cc2c1` it is greater than 100 µM.
As to `Cc1ccc2c(c1)[nH]c1cc(C(F)(F)F)ccc1[p+]2=O` (configuration not stated), the TGI was greater than 100 µM.
The same measure, in the same setting: the value for `CN(O)C(=O)c1cccc(Cl)c1` was greater than 100 µM; that for `CCC1(C)N=C(c2cnccn2)NN1c1ccc(Cl)cc1` (configuration not stated) was greater than 100 µM; that for `C1CNCCNCCN1` was greater than 100 µM.
Molecule `O=c1nc2c(c(-c3ccccc3Cl)[nH]1)COC/C2=C\c1ccccc1Cl` gave a TGI greater than 100 µM.
